Measurements published in US20120122727A1, “IN VITRO METHOD FOR PREDICTING WHETHER A COMPOUND IS GENOTOXIC IN VIVO” (priority 2009, published 2012).

Test system: primary mouse hepatocytes
Test: Gene expression (Affymetrix Mouse Genome 430 2.0) in primary mouse hepatocytes, true vs false GTX, 24 h and 48 h
Settings: log2, corrected for vehicle control

O=c1c(O)c(-c2ccc(O)c(O)c2)oc2cc(O)cc(O)c12 [Q, Quercetin]
Gene expression data AF000969 (Cadps2) (24 h average): −0.5753 | Gene expression data AF022072 (Grb10) (24 h average): 0.3385 | Gene expression data AF065917 (Lif) (24 h average): −0.1024 | Gene expression data AF204959 (Cyp3a25 /// LOC622249) (24 h average): −1.232 | Gene expression data AF297615 (Ggta1) (24 h average): 0.8047 | Gene expression data AI594683 (Dmn) (24 h average): −0.2712 | Gene expression data AI596632 (Ptprg /// LOC632664) (24 h average): −0.456 | Gene expression data AI987929 (Ndrg1) (24 h average): 1.663 | Gene expression data AK004419 (Fbxl17) (24 h average): −0.01537 | Gene expression data AK005731 (1700007K13Rik) (24 h average): 0.6919 | Gene expression data AK007766 (1810044A24Rik) (24 h average): −0.04463 | Gene expression data AK007854 (1810053B23Rik) (24 h average): −0.9336 | Gene expression data AK009736 (Gpr137b /// LOC664862 /// LOC673335) (24 h average): 1.171 | Gene expression data AK010447 (Smyd3) (24 h average): 0.0701 | Gene expression data AK014608 (4632434l11Rik) (24 h average): 0.03273 | Gene expression data AK019979 (2610528E23Rik) (24 h average): 0.2502 | Gene expression data AV095209 (Mthfd1l) (24 h average): 0.8331 | Gene expression data AV141095 (1110033M05Rik) (24 h average): 0.2855 | Gene expression data AV173571 (1700106N22Rik) (24 h average): −0.2484 | Gene expression data AV219418 (Ldhb) (24 h average): −0.1808 | Gene expression data AV223474 (Zdhhc14) (24 h average): −0.2496 | Gene expression data AV298304 (Homez) (24 h average): 0.2496 | Gene expression data AV327248 (Zfp365 /// LOC674611) (24 h average): 0.3116 | Gene expression data AV377066 (9130221J18Rik) (24 h average): −0.4922 | Gene expression data AW240761 (Tbc1d5) (24 h average): −0.157 | Gene expression data AW543460 (Pard3) (24 h average): 0.2437 | Gene expression data AW543723 (24 h average): 0.4193 | Gene expression data AW986246 (Maoa) (24 h average): 1.388 | Gene expression data BB027848 (4732466D17Rik) (24 h average): −1.304 | Gene expression data BB043558 (9230114K14Rik) (24 h average): 0.3431 | Gene expression data BB275142 (AW456874) (24 h average): −0.5004 | Gene expression data BB308836 (Ppm1l) (24 h average): 0.1666 | Gene expression data BB318221 (Zdhhc14) (24 h average): −0.1479 | Gene expression data BB463610 (4632434l11Rik) (24 h average): −0.1026 | Gene expression data BB526605 (Mipol1) (24 h average): 0.09617 | Gene expression data BB770528 (Rai2) (24 h average): −0.3109 | Gene expression data BB821363 (Scfd2) (24 h average): −0.2338 | Gene expression data BC004827 (Psat1) (24 h average): 0.9258 | Gene expression data BC008626 (Icam1) (24 h average): −0.3725 | Gene expression data BC010462 (BC010462) (24 h average): −0.5852 | Gene expression data BC012247 (Dcxr) (24 h average): −0.2845 | Gene expression data BC012260 (Psmf1) (24 h average): −0.1689 | Gene expression data BC015270 (Hist2h3c2) (24 h average): −0.3924 | Gene expression data BC016073 (Cdkal1) (24 h average): 0.1993 | Gene expression data BC016265 (Ube2e2) (24 h average): 0.1622 | Gene expression data BC019882 (Acaa1b) (24 h average): 0.7124 | Gene expression data BC025501 (Aaas) (24 h average): 0.4589 | Gene expression data BC025837 (Sbk1) (24 h average): −0.3383 | Gene expression data BC025915 (Cova1) (24 h average): 0.3176 | Gene expression data BC026422 (Tgm1) (24 h average): 0.28 | Gene expression data BF719766 (Thyn1) (24 h average): 0.1596 | Gene expression data BG065754 (Ccng1) (24 h average): 0.4829 | Gene expression data BG066903 (Kif16b) (24 h average): 0.2506 | Gene expression data BG069873 (Gnb1l) (24 h average): 0.007867 | Gene expression data BG070887 (Gtdc1) (24 h average): −0.2209 | Gene expression data BG076151 (Ppm1d) (24 h average): −0.1367 | Gene expression data BG261907 (Large) (24 h average): 0.3964 | Gene expression data BI651416 (Cdc42bpg) (24 h average): 0.2653 | Gene expression data BI660702 (Ell3) (24 h average): −0.05897 | Gene expression data BM198879 (Ercc5) (24 h average): 0.1402 | Gene expression data BM230508 (A030007D23Rik) (24 h average): 0.3449 | Gene expression data NM_007987 (Fas) (24 h average): 0.1744 | Gene expression data NM_008522 (Ltf) (24 h average): −0.09593 | Gene expression data NM_008576 (Abcc1) (24 h average): 1.2925 | Gene expression data NM_011176 (St14) (24 h average): 0.5914 | Gene expression data NM_011316 (Saa4) (24 h average): −0.1314 | Gene expression data NM_012006 (Acot1) (24 h average): 1.0762 | Gene expression data NM_013866 (Zfp385) (24 h average): 0.06543 | Gene expression data NM_018770 (Igsf4a) (24 h average): 0.4689 | Gene expression data NM_021451 (Pmaip1) (24 h average): −0.611 | Gene expression data NM_025770 (Atg10) (24 h average): 0.2663 | Gene expression data NM_028803 (Gbe1) (24 h average): −0.2509 | Gene expression data NM_030697 (Ankrd47) (24 h average): 1.3142 | Gene expression data NM_053168 (Trim11) (24 h average): −0.02257 | Gene expression data NM_134188 (Acot2) (24 h average): 0.1275 | Gene expression data Y15910 (Diap2) (24 h average): −0.31 | Gene expression AA561726 average (48 h): 0.3473 | Gene expression AF000969 average (48 h): 0.6762 | Gene expression AF022072 average (48 h): 0.7799 | Gene expression AF033112 average (48 h): 0.02593 | Gene expression AF055573 average (48 h): 0.0039 | Gene expression AF069954 average (48 h): −0.168 | Gene expression AF297615 average (48 h): −0.02943 | Gene expression AF335325 average (48 h): −0.3547 | Gene expression AI594683 average (48 h): −0.1952 | Gene expression AI747296 average (48 h): −0.1572 | Gene expression AK005731 average (48 h): −0.8953 | Gene expression AK007854 average (48 h): 1.0645 | Gene expression AK010447 average (48 h): −0.1277 | Gene expression AK010738 average (48 h): 0.03457 | Gene expression AK014608 average (48 h): −0.3181 | Gene expression AK017734 average (48 h): −0.2231 | Gene expression AK018383 average (48 h): −0.06343 | Gene expression AK019979 average (48 h): −0.6456 | Gene expression AV095209 average (48 h): 0.0573 | Gene expression AV141095 average (48 h): −0.03573 | Gene expression AV173869 average (48 h): −0.3593 | Gene expression AV216768 average (48 h): 0.4269 | Gene expression AV219418 average (48 h): 0.7223 | Gene expression AV221299 average (48 h): 0.3941 | Gene expression AV246296 average (48 h): −0.449 | Gene expression AV251625 average (48 h): −0.2405 | Gene expression AV254764 average (48 h): −0.09113 | Gene expression AV327248 average (48 h): −0.1842 | Gene expression BB009155 average (48 h): −0.6448 | Gene expression BB027848 average (48 h): −0.5634 | Gene expression BB043558 average (48 h): 0.03817 | Gene expression BB046347 average (48 h): 0.3747 | Gene expression BB140436 average (48 h): 0.455 | Gene expression BB204486 average (48 h): 0.3211 | Gene expression BB223872 average (48 h): −0.2409 | Gene expression BB246912 average (48 h): 0.03943 | Gene expression BB275142 average (48 h): −0.5307 | Gene expression BB458460 average (48 h): −0.2505 | Gene expression BB463610 average (48 h): −0.254 | Gene expression BB730977 average (48 h): 0.127 | Gene expression BB743970 average (48 h): −0.1543 | Gene expression BB770528 average (48 h): −0.5238 | Gene expression BB781615 average (48 h): −0.3025 | Gene expression BC003284 average (48 h): −0.3991 | Gene expression BC004827 average (48 h): 0.3832 | Gene expression BC005552 average (48 h): 0.365 | Gene expression BC006713 average (48 h): 0.1419 | Gene expression BC010318 average (48 h): 0.2274 | Gene expression BC012247 average (48 h): 0.1853 | Gene expression BC012955 average (48 h): 0.25 | Gene expression BC013893 average (48 h): −0.5246 | Gene expression BC017615 average (48 h): −0.2786 | Gene expression BC019379 average (48 h): −0.03313 | Gene expression BC019882 average (48 h): −0.02177 | Gene expression BC021352 average (48 h): −1.143 | Gene expression BC022148 average (48 h): 0.2323 | Gene expression BC025169 average (48 h): 0.176 | Gene expression BC026131 average (48 h): 0.3886 | Gene expression BC027026 average (48 h): 0.3636 | Gene expression BC027121 average (48 h): 0.003767 | Gene expression BC027185 average (48 h): −0.4317 | Gene expression BE956581 average (48 h): 0.1063 | Gene expression BF719766 average (48 h): 0.1683 | Gene expression BG065754 average (48 h): −0.2692 | Gene expression BG066491 average (48 h): −0.6278 | Gene expression BG076151 average (48 h): −0.7006 | Gene expression BG076333 average (48 h): 0.2569 | Gene expression BG797099 average (48 h): −0.3185 | Gene expression BG967046 average (48 h): −0.2263 | Gene expression BI651416 average (48 h): −0.4982 | Gene expression BI966443 average (48 h): 0.1621 | Gene expression BM198879 average (48 h): −0.1382 | Gene expression BM200015 average (48 h): −0.2469 | Gene expression BM230508 average (48 h): −0.6707 | Gene expression BM936480 average (48 h): 0.1682 | Gene expression BQ174991 average (48 h): 0.5432 | Gene expression L21027 average (48 h): 0.4391 | Gene expression NM_007556 average (48 h): 0.4673 | Gene expression NM_007980 average (48 h): 1.051 | Gene expression NM_007987 average (48 h): −0.07343 | Gene expression NM_008522 average (48 h): −0.03917 | Gene expression NM_008935 average (48 h): 0.5881 | Gene expression NM_009897 average (48 h): 0.2468 | Gene expression NM_011075 average (48 h): −0.8714 | Gene expression NM_011176 average (48 h): −0.3579 | Gene expression NM_011316 average (48 h): −0.2485 | Gene expression NM_012006 average (48 h): 0.7373 | Gene expression NM_013642 average (48 h): 0.7153 | Gene expression NM_013738 average (48 h): −0.4434 | Gene expression NM_013929 average (48 h): 0.09257 | Gene expression NM_018881 average (48 h): 0.2667 | Gene expression NM_019738 average (48 h): −0.7691 | Gene expression NM_030697 average (48 h): 0.08597 | Gene expression NM_053122 average (48 h): −0.1158 | Gene expression NM_134147 average (48 h): −0.2048 | Gene expression NM_134188 average (48 h): 0.5773 | Gene expression X62701 average (48 h): 0.8426
